Assays:
Assay in all cases: In vitro activity against cancer cell lines, 3H-thymidine incorporation
Format in all cases: cell-based, human
[1] = tested on: MDA-MB-231
Description: (§1) METHOD. In vitro activity against various cancer cell lines. IC50 values were generated for various cell lines. Cells were heavily seeded in 24-well Falcon plates and allowed to form nearly confluent monolayers overnight. Thirty minutes prior to the addition of the test compound, spent medium was aspirated from all wells and replaced with fresh folate-deficient RPMI medium (FFRPMI). A subset of wells were designated to receive media containing 100 μM folic acid. The cells in the designated wells were used to determine the targeting specificity. Without being bound by theory it is believed herein that the cytotoxic activity produced by test compounds in the presence of excess folic acid, i.e. where there is competition for FR binding, corresponds to the portion of the total activity that is unrelated to FR-specific delivery. Following one rinse with 1 mL of fresh FFRPMI containing 10% heat-inactivated fetal calf serum, each well received 1 mL of medium containing increasing concentrations of test compound (4 wells per sample) in the presence or absence of 100 μM free folic acid as indicated. Treated cells were pulsed for 2 h at 37° C., rinsed 4 times with 0.5 mL of media, and then chased in 1 mL of fresh medium up to 70 h. Spent medium was aspirated from all wells and replaced with fresh medium containing 5 μCi/mL ^3H-thymidine. Following a further 2 h 37° C. incubation, cells were washed 3 times with 0.5 mL of PBS and then treated with 0.5 mL of ice-cold 5% trichloroacetic acid per well. After 15 min, the trichloroacetic acid was aspirated and the cell material solubilized by the addition of 0.5 mL of 0.25 N sodium hydroxide for 15 min. A 450 μL aliquot of each solubilized sample was transferred to a scintillation vial containing 3 mL of Ecolume scintillation cocktail and then counted in a liquid scintillation counter. Final results are expressed as the percentage of ^3H-thymidine incorporation relative to untreated controls.

[2] = tested on: H23; conditions: FR expression −; evaluated from 0.1-100 nM
Description: as §1

[3] = tested on: A549; conditions: FR expression −; evaluated from 0.1-100 nM
Description: as §1

[4] = tested on: HepG2; conditions: FR expression −; evaluated from 0.1-100 nM
Description: as §1

[5] = tested on: IGROV1
Description: as §1

[6] = tested on: AN3CA; conditions: FR expression −; evaluated from 0.1-100 nM
Description: as §1

[7] = tested on: NCl/ADR-RES-Cl2
Description: as §1

[8] = tested on: LNCaP; conditions: FR expression −
Description: as §1

Compound: CCCC(=O)OCN(C(=O)[C@@H](NC(=O)[C@H]1CCCCN1C)C(C)CC)[C@H](C[C@@H](OC(C)=O)c1nc(C(=O)N[C@@H](Cc2ccc(O)cc2)C[C@H](C)C(=O)NNC(=O)OCCSSC[C@@H](NC(=O)[C@H](CCC(=O)NC[C@H](O)[C@@H](O)[C@H](O)[C@H](O)CO)NC(=O)[C@@H](CCC(=O)O)NC(=O)[C@H](CCC(=O)NC[C@H](O)[C@@H](O)[C@H](O)[C@H](O)CO)NC(=O)[C@@H](CCC(=O)O)NC(=O)[C@H](CCC(=O)NC[C@H](O)[C@@H](O)[C@H](O)[C@H](O)CO)NC(=O)CC[C@@H](NC(=O)c2ccc(NCc3cnc4nc(N)[nH]c(=O)c4n3)cc2)C(=O)O)C(=O)O)cs1)C(C)C (stereo in doubt) [EC1456]
- IC50 ([1]; FR expression +): 0.47 nM
- Competable up to 100 nM ([1]; folic acid competition): Yes
- Activity (IC50) [2]: Inactive
- Activity (IC50) [3]: Inactive (a)
- Activity (IC50) [4]: Inactive
- IC50 ([5]; FR expression +): 0.72 nM
- Competable up to 100 nM ([5]; folic acid competition): Yes
- Activity (IC50) [6]: Inactive
- IC50 ([7]; FR expression ++): 1.4 nM
- Competable up to 100 nM ([7]; folic acid competition): Yes
- IC50 [8]: ~850 nM

Reference: patent US20170035894A1, “DRUG DELIVERY CONJUGATES FOR TREATING RESISTANT CANCER AND FOR USE IN COMBINATION THERAPY” (ENDOCYTE, INC., priority 2014, published 2017)
